The target in one experiment is BTK (Homo sapiens, UniProt Q06187). The experiment in a line: Inhibitory activity against BTK (ADP-Glo + BTK Kinase enzyme system kit). In general terms: ADP-Glo first removes unused ATP, then detects ADP through luciferase.
A further experiment concerns the target T1, ITK (Homo sapiens, UniProt Q08881).
T1 construct: purchased Promega Corporation
T1 sequence (Q08881 1-620): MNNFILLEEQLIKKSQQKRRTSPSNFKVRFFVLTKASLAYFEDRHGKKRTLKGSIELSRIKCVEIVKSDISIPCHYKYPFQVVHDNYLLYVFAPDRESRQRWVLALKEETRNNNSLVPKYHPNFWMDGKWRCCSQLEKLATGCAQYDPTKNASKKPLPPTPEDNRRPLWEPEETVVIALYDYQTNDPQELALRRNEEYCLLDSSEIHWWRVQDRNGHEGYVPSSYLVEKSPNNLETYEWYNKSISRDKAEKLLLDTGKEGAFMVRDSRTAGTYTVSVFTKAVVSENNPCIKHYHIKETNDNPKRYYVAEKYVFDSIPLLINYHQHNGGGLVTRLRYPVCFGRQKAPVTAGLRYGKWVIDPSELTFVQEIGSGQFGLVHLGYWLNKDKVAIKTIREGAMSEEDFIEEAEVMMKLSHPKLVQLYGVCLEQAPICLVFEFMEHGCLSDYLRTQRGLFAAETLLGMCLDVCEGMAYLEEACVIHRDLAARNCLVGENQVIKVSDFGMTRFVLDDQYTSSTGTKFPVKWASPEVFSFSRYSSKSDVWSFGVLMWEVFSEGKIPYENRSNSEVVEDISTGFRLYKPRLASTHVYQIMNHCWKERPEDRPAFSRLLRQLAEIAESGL
The experiment in a line: Inhibitory activity against ITK (ADP-Glo + ITK Kinase enzyme system kit); selectivity BTK vs. ITK. The following applies: for IC50: ITK enzyme 0.4 ng/uL, ATP 25 uM, luminescence, duplicate; for Selectivity (based on IC50): selectivity for the inhibitory activity of BTK vs. ITK, Equation 1. Type of experiment: biochemical.

Broadly, the IC50 is the concentration that inhibits the measured activity by half.

Chain of BTK (Q06187 whole entry): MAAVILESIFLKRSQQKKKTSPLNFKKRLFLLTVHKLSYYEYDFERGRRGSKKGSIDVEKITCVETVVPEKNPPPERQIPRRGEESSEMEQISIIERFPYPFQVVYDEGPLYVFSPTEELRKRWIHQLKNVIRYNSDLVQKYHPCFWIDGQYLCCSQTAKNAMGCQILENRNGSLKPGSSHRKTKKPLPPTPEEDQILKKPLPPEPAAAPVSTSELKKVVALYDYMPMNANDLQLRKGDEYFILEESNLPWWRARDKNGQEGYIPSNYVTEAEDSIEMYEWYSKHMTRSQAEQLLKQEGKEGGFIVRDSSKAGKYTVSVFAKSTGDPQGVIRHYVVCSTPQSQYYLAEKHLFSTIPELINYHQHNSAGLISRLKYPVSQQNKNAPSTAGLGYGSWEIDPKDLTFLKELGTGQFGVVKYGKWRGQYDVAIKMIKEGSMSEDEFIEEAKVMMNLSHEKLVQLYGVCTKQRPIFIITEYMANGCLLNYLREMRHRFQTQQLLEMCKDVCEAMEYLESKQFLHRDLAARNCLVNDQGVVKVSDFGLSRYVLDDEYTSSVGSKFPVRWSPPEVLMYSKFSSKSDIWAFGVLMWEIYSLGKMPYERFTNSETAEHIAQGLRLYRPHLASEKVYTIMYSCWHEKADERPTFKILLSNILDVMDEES

As for `C#CC(=O)N1CC2CC1C(n1nc(-c3ccc(C(=O)Nc4ccccn4)cc3)c3c(N)ncnc31)C2` (stereo not drawn) [Ex. 4, 4-(4-amino-1-(2-propioloyl-2-azabicyclo[2.2.1]heptan-6-yl)-1H-pyrazolo[3,4-d]pyrimidin-3-yl)-N-(pyridin-2-yl)benzamide], the 50% inhibitory concentration (IC50) stood at 2.8 nM at BTK and 104 nM at ITK. For the same molecule, the “Selectivity (based on IC50)” value at ITK stood at 37.1.

As for `C=CC(=O)N1CC2CC1CC2n1nc(-c2ccc(Oc3ccccc3)cc2)c2c(N)ncnc21` (stereo not drawn) [Ex. 12, 1-(5-(4-amino-3-(4-phenoxyphenyl)-1H-pyrazolo[3,4-d]pyrimidin-1-yl)-2-azabicyclo[2.2.1]heptan-2-yl)prop-2-en-1-one], at BTK, the IC50 stood at 3.3 nM. At ITK, the IC50 was more than 1000 nM and the “Selectivity (based on IC50)” value is reported as more than 303.3.

On to `C=CC(=O)N1C[C@@H]2C[C@H]1C[C@H]2n1nc(-c2ccc(Oc3ccccc3)cc2)c2c(N)ncnc21` [Ex. 14, 1-((1S,4S,5R)-5-(4-amino-3-(4-phenoxyphenyl)-1H-pyrazolo[3,4-d]pyrimidin-1-yl)-2-azabicyclo[2.2.1]heptan-2-yl)prop-2-en-1-one], for which the IC50 on BTK was 2.6 nM. On ITK, the IC50 was more than 1000 nM and the “Selectivity (based on IC50)” value is more than 384.6.

Take `C#CC(=O)N1CC2CC1C(n1nc(-c3cccc(Oc4ccccc4)c3)c3c(N)ncnc31)C2` (stereo not drawn) [Ex. 15, 1-(6-(4-amino-3-(3-phenoxyphenyl)-1H-pyrazolo[3,4-d]pyrimidin-1-yl)-2-azabicyclo[2.2.1]heptan-2-yl)prop-2-yn-1-one]: the 50% inhibitory concentration (IC50) at BTK was determined as 2.1 nM. Also, on ITK, the IC50 was 123 nM and the “Selectivity (based on IC50)” value was determined as 58.3.

For `C#CC(=O)N1CC2CC1C(n1nc(-c3ccc(C(=O)Nc4ccccc4)cc3)c3c(N)ncnc31)C2` (stereo not drawn) [Ex. 17, 4-(4-amino-1-(2-propioloyl-2-azabicyclo[2.2.1]heptan-6-yl)-1H-pyrazolo[3,4-d]pyrimidin-3-yl)-N-phenylbenzamide], on BTK, the IC50 was 4.7 nM. For the same molecule, on ITK, the IC50 is more than 1000 nM and the “Selectivity (based on IC50)” value is on record as more than 212.8.

Turning to `C=CC(=O)N1CC2CC1C(n1nc(-c3ccc(S(=O)(=O)c4ccccc4)cc3)c3c(N)ncnc31)C2` (stereo not drawn) [Ex. 32, 1-(6-(4-amino-3-(4-(phenylsulfonyl)phenyl)-1H-pyrazolo[3,4-d]pyrimidin-1-yl)-2-azabicyclo[2.2.1]heptan-2-yl)prop-2-en-1-one], the IC50 at BTK was 4 nM; at ITK, more than 1000 nM. Moreover, at ITK, the “Selectivity (based on IC50)” value is more than 250.

Turning to `C=CC(=O)N1CC2CC1C(n1nc(-c3ccc(Sc4ccccc4)cc3)c3c(N)ncnc31)C2` (stereo not drawn) [Ex. 33, 1-(6-(4-amino-3-(4-(phenylthio)phenyl)-1H-pyrazolo[3,4-d]pyrimidin-1-yl)-2-azabicyclo[2.2.1]heptan-2-yl)prop-2-en-1-one], the concentration for half-maximal inhibition (IC50) at BTK is 3.3 nM; at ITK, more than 1000 nM. In addition, the “Selectivity (based on IC50)” value at ITK is listed as more than 303.0.

Turning to `C=CC(=O)N1CC2CC1C(n1nc(-c3ccc(Oc4cccc(F)c4)cc3)c3c(N)ncnc31)C2` (stereo not drawn) [Ex. 34, 1-(6-(4-amino-3-(4-(3-fluorophenoxy)phenyl)-1H-pyrazolo[3,4-d]pyrimidin-1-yl)-2-azabicyclo[2.2.1]heptan-2-yl)prop-2-en-1-one], the 50% inhibitory concentration (IC50) on BTK was 4.4 nM. Moreover, on ITK, the IC50 stood at 308 nM and the “Selectivity (based on IC50)” value was 69.9.

Take `C=CC(=O)N1CC2CC1C(n1nc(-c3ccc(Oc4ccccc4)cc3F)c3c(N)ncnc31)C2` (stereo not drawn) [Ex. 35, 1-(6-(4-amino-3-(2-fluoro-4-phenoxyphenyl)-1H-pyrazolo[3,4-d]pyrimidin-1-yl)-2-azabicyclo[2.2.1]heptan-2-yl)prop-2-en-1-one]: the 50% inhibitory concentration (IC50) on BTK stood at 2.2 nM; on ITK, 132 nM. Also, at ITK, the “Selectivity (based on IC50)” value was determined as 60.0.

The values are drawn from patent US10399988B2, “4-aminopyrazolo[3,4-d]pyrimidinylazabicyclo derivatives and pharmaceutical composition comprising the same” (Daewoong Pharmaceutical Co., Ltd., priority 2016, dated 2019).
